Test results taken from US7713969B2, “Compositions and methods for treatment of cancer” (ArQule, Inc., priority 2005, dated 2010).

How the values were obtained:
Type in all cases: cell-based
DLD-1 = test: Colony formation assay (CFA); settings: Homo sapiens; DLD-1, 24 hours exposure, colonies after 14-21 days; read-out: (−)-trans IC50 CFA
Method: (§1) To determine c-met inhibition, exponentially growing MCF-7 and MDA-MB-231 human breast cancer cells, DLD1 and HT29 human colon cancer cells, PACA2 and PANC-1 human pancreatic cancer cells and NCI-H441 human non-small cell lung cancer cells (H441) were serum starved in 0.5% FBS and treated with increasing amounts of (−)-trans-3-(5,6-dihydro-4H-pyrrolo [3,2,1-ij]quinolin-1-yl)-4(1H-indol-3-yl)pyrrolidine-2,5-dione for 24 hours as indicated. Cells were then left unstimulated or stimulated with 100 ng/mL HGF for 10 minutes and whole cell extracts were prepared. Whole cell lysates (50 μg) were resolved by SDS-PAGE, transferred onto a PVDF membrane, and an enhanced chemiluminescence assay system (ECL) was used to determine the phosphorylation status of c-Met. A polyclonal antibody against phospho (Y1349) c-Met (phospho-c-Met) was obtained from Biosource International and a monoclonal antibody against β-actin was purchased from Invitrogen. Percent inhibition was determined by densitometry using the Scion Image For colony formation assays (CFA), exponentially growing cells were seeded at 2,000 cells per well in 6-well plates and allowed to attach for 24 hours. Increasing concentrations of (−)-trans-3-(5,6-dihydro-4H-pyrrolo[3,2,1-ij]quinolin-1-yl)-4(1H-indol-3-yl)pyrrolidine-2,5-dione (from 0.01 to 30 μM) were then added to the media for another 24 hours. After 24 hours exposure, the drug was removed and fresh media was added for the next 14-21 days, allowing for colony formation. Cells were fixed and stained with GEMSA (Gibco BRL). Colonies of greater than 50 cells were scored as survivors and percentage of cell survival was plotted to determine the IC50. […] The IC50 of (−)-trans-3-(5,6-dihydro-4H-pyrrolo[3,2,1-ij]quinolin-1-yl)-4(1H-indol-3-yl) pyrrolidine-2,5-dione for c-Met expressing solid tumor types is in the 0.1-0.7 μM range following exposure to (−)-trans-3-(5,6-dihydro-4H-pyrrolo[3,2,1-ij]quinolin-1-yl)-4(1H-indol-3-yl)pyrrolidine-2,5-dione for 24 hours, as determined by colony formation assay (CFA).

H441 = test: Colony formation assay (CFA); settings: Homo sapiens, NCI-H441; H441, 24 hours exposure, colonies after 14-21 days; read-out: (−)-trans IC50 CFA
Method: as §1

H446 = test: Colony formation assay (CFA); settings: Homo sapiens, NCI-H446; H446, 24 hours exposure, colonies after 14-21 days; read-out: (−)-trans IC50 CFA
Method: as §1

H661 = test: Colony formation assay (CFA); settings: Homo sapiens, NCI-H661; H661, 24 hours exposure, colonies after 14-21 days; read-out: (−)-trans IC50 CFA
Method: as §1

HT-29 = test: Colony formation assay (CFA); settings: Homo sapiens; HT-29, 24 hours exposure, colonies after 14-21 days; read-out: (−)-trans IC50 CFA
Method: as §1

MCF-7 = test: Colony formation assay (CFA); settings: Homo sapiens, MCF7; MCF-7, 24 hours exposure, colonies after 14-21 days; read-out: (−)-trans IC50 CFA
Method: as §1

MDA-MB-231 = test: Colony formation assay (CFA); settings: Homo sapiens; MDA-MB-231, 24 hours exposure, colonies after 14-21 days; read-out: (−)-trans IC50 CFA
Method: as §1

PACA2 = test: Colony formation assay (CFA); settings: Homo sapiens, PaCa-2; PACA2, 24 hours exposure, colonies after 14-21 days; read-out: (−)-trans IC50 CFA
Method: as §1

PANC-1 = test: Colony formation assay (CFA); settings: Homo sapiens; PANC-1, 24 hours exposure, colonies after 14-21 days; read-out: (−)-trans IC50 CFA
Method: as §1

human tumor cell lines = test: Colony formation assay, summary across cell lines; settings: c-Met expressing solid tumor types, 24 hours exposure, read-out: IC50 for c-Met expressing solid tumor types (CFA)
Method: To determine c-met inhibition, exponentially growing MCF-7 and MDA-MB-231 human breast cancer cells, DLD1 and HT29 human colon cancer cells, PACA2 and PANC-1 human pancreatic cancer cells and NCI-H441 human non-small cell lung cancer cells (H441) were serum starved in 0.5% FBS and treated with increasing amounts of (−)-trans-3-(5,6-dihydro-4H-pyrrolo [3,2,1-ij]quinolin-1-yl)-4(1H-indol-3-yl)pyrrolidine-2,5-dione for 24 hours as indicated. Cells were then left unstimulated or stimulated with 100 ng/mL HGF for 10 minutes and whole cell extracts were prepared. […] Percent inhibition was determined by densitometry using the Scion Image For colony formation assays (CFA), exponentially growing cells were seeded at 2,000 cells per well in 6-well plates and allowed to attach for 24 hours. […] Colonies of greater than 50 cells were scored as survivors and percentage of cell survival was plotted to determine the IC50. […] The IC50 of (−)-trans-3-(5,6-dihydro-4H-pyrrolo[3,2,1-ij]quinolin-1-yl)-4(1H-indol-3-yl) pyrrolidine-2,5-dione for c-Met expressing solid tumor types is in the 0.1-0.7 μM range following exposure to (−)-trans-3-(5,6-dihydro-4H-pyrrolo[3,2,1-ij]quinolin-1-yl)-4(1H-indol-3-yl)pyrrolidine-2,5-dione for 24 hours, as determined by colony formation assay (CFA).

[1] = tested on: A549 human lung cancer cells; test: Annexin V / propidium iodide staining (Example 84); settings: 1.2 μM, 38 hours
Method: A549 human lung cancer cells in a 96-well plate (Costar 3603, 5,000/well) were treated with either A) DMSO as a control; B) 1.2 μM (−)-trans-3-(5,6-dihydro-4H-pyrrolo[3,2,1-ij]quinolin-1-yl)-4(1H-indol-3-yl)pyrrolidine-2,5-dione for 38 hours before addition of 1:200 fluorescent Annexin V (green) and 1:500 Propidium iodide (magenta, final concentration of 1 μg/mL). The labeling procedure was allowed to process at 37° C. for 20 minutes followed by image acquisition and analysis using an IC100 Image Cytometer (Beckman Coulter, Inc) with 10× amplification.
To determine whether (−)-trans-3-(5,6-dihydro-4H-pyrrolo[3,2,1-ij]quinolin-1-yl)-4(1H-indol-3-yl)pyrrolidine-2,5-dione works primarily through a cytostatic or apoptotic mechanism, cancer cells exposed to (−)-trans-3-(5,6-dihydro-4H-pyrrolo[3,2,1-ij]quinolin-1-yl)-4(1H-indol-3-yl) pyrrolidine-2,5-dione were stained with fluorescently labeled Annexin V (green fluorescence) and propidium iodide (bright magenta fluorescence). Annexin V is a well-validated reagent that specifically binds with high affinity to externalized membrane phosphatidylserine, an early marker of the onset of apoptosis, while propidium iodide is a marker for dead cells. […] (See FIG. 8)

MDA-MB-231 cells = test: Cancer cell invasion assay with inserts (Example 85); settings: Homo sapiens, 24 hours pretreatment, 24 hours invasion, read-out: estimated IC50, invasive phenotype
Method: MDA-MB-231 cells were pretreated with indicated concentrations of (−)-trans-3-(5,6-dihydro-4H-pyrrolo[3,2,1-ij]quinolin-1-yl)-4(1H-indol-3-yl)pyrrolidine-2,5-dione for 24 hours. 300 μl of each cell suspension (at a concentration 0.5×10^6 cells/mL in serum free medium) was placed in individual inserts and incubated for 24 hours at 37° C. The bottom wells housing the inserts contained 500 μl of 10% FBS medium. […] Each insert was then transferred to a clean well containing cell stain solution and incubated for 10 minutes at room temperature. The bottom of the insert was destained by incubating in extraction solution and OD was measured at 560 nm. (−)-trans-3-(5,6-dihydro-4H-pyrrolo[3,2,1-ij]quinolin-1-yl)-4(1H-indol-3-yl) pyrrolidine-2,5-dione inhibited the migration across interstices in confluent cultures of MDA-MB-231 cancer cells. The data represent the mean of two independent experiments. (See FIG. 9)

IC50 (DLD-1): 700 nM
IC50 (H441): 200 nM
IC50 (H446): 4000 nM
IC50 (H661): 5000 nM
IC50 (HT-29): 200 nM
IC50 (MCF-7): 400 nM
IC50 (MDA-MB-231): 300 nM
IC50 (PACA2): 300 nM
IC50 (PANC-1): 500 nM
IC50 (human tumor cell lines): 100 to 700 nM
IC50 (MDA-MB-231 cells): ~500 nM
Compound: O=C1NC(=O)C(c2cn3c4c(cccc24)CCC3)C1c1c[nH]c2ccccc12 (single isomer, unassigned; (-))
apoptosis evidenced by Annexin V staining [1]: induced cells to undergo apoptosis
cells that co-stain with both Annexin V and propidium iodide [1]: 10-20%
